What was measured:
Assay in all cases: Post-emergence test experiment (Table 3, 1000 g/ha)
Format in all cases: in vivo
Settings in all cases: post-emergence spray, after 3 weeks, fresh weight inhibition
Digitaria sanguinalis = tested on: Digitaria sanguinalis
Outline: (§1)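 Weed seeds sown in soil-filled pots in greenhouse, sprayed at 2-3 leaf stage (2 weeks after sowing) with compound in acetone/tween-80 plus methyl oleate emulsible concentrate (1.5 L/ha) diluted in water. Fresh-weight growth inhibition scored after 3 weeks on 0-5 scale (5: >85%, 0: <5%).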

Galium spurium = tested on: Galium spurium
Outline: as §1

Setaria viridis = tested on: Setaria viridis
Outline: as §1

Abutilon theophrasti = tested on: Abutilon theophrasti
Outline: as §1

Monochoria vaginalis = tested on: Monochoria vaginalis
Outline: as §1

Leptochloa chinensis = tested on: Leptochloa chinensis
Outline: as §1

| SMILES | Activity level (growth inhibition rate) Digitaria sanguinalis (Digitaria sanguinalis) | Activity level (growth inhibition rate) Galium spurium (Galium spurium) | Activity level (growth inhibition rate) Setaria viridis (Setaria viridis) | Activity level (growth inhibition rate) Abutilon theophrasti (Abutilon theophrasti) | Activity level (growth inhibition rate) Monochoria Vaginalis (Monochoria vaginalis) | Activity level (growth inhibition rate) Leptochloa chinensis (Leptochloa chinensis) |
| --- | --- | --- | --- | --- | --- | --- |
| CSC(=O)C(C)Oc1nc(I)c(Cl)c(N)c1Cl (stereo not drawn) [Compound 17] | 5 (Level 5: the growth inhibition rate is greater than 85%) | 5 (Level 5: the growth inhibition rate is greater than 85%) | 5 (Level 5: the growth inhibition rate is greater than 85%) | 5 (Level 5: the growth inhibition rate is greater than 85%) | 5 (Level 5: the growth inhibition rate is greater than 85%) | 5 (Level 5: the growth inhibition rate is greater than 85%) |
| CCCc1c(OC(C)C(=O)SCC(F)(F)F)nc(Br)c(Cl)c1N (stereo not drawn) [Compound 18] | 5 (Level 5: the growth inhibition rate is greater than 85%) | 5 (Level 5: the growth inhibition rate is greater than 85%) | 5 (Level 5: the growth inhibition rate is greater than 85%) | 5 (Level 5: the growth inhibition rate is greater than 85%) | 5 (Level 5: the growth inhibition rate is greater than 85%) | 5 (Level 5: the growth inhibition rate is greater than 85%) |
| CCCCC(CC)CSC(=O)C(C)Oc1nc(C)c(C)c(N)c1C (stereo not drawn) [Compound 19] | 5 (Level 5: the growth inhibition rate is greater than 85%) | 5 (Level 5: the growth inhibition rate is greater than 85%) | 5 (Level 5: the growth inhibition rate is greater than 85%) | 5 (Level 5: the growth inhibition rate is greater than 85%) | 5 (Level 5: the growth inhibition rate is greater than 85%) | 5 (Level 5: the growth inhibition rate is greater than 85%) |
| CSC(=O)C(C)Oc1nc(F)c(Cl)c(N)c1C (stereo not drawn) [Compound 20] | 5 (Level 5: the growth inhibition rate is greater than 85%) | 5 (Level 5: the growth inhibition rate is greater than 85%) | 5 (Level 5: the growth inhibition rate is greater than 85%) | 5 (Level 5: the growth inhibition rate is greater than 85%) | 5 (Level 5: the growth inhibition rate is greater than 85%) | 5 (Level 5: the growth inhibition rate is greater than 85%) |
| CSC(=O)C(C)Oc1ncc(Cl)c(N)c1C (stereo not drawn) [Compound 21] | 5 (Level 5: the growth inhibition rate is greater than 85%) | 5 (Level 5: the growth inhibition rate is greater than 85%) | 5 (Level 5: the growth inhibition rate is greater than 85%) | 5 (Level 5: the growth inhibition rate is greater than 85%) | 5 (Level 5: the growth inhibition rate is greater than 85%) | 5 (Level 5: the growth inhibition rate is greater than 85%) |
| CSC(=O)C(C)Oc1nc(F)c(Cl)c(N)c1C1CC1 (stereo not drawn) [Compound 22] | 5 (Level 5: the growth inhibition rate is greater than 85%) | 5 (Level 5: the growth inhibition rate is greater than 85%) | 5 (Level 5: the growth inhibition rate is greater than 85%) | 5 (Level 5: the growth inhibition rate is greater than 85%) | 5 (Level 5: the growth inhibition rate is greater than 85%) | 5 (Level 5: the growth inhibition rate is greater than 85%) |
| CCCSC(=O)C(C)Oc1nc(F)c(Cl)c(N)c1Cl (stereo not drawn) [Compound 67] | 5 (Level 5: the growth inhibition rate is greater than 85%) | 5 (Level 5: the growth inhibition rate is greater than 85%) | 5 (Level 5: the growth inhibition rate is greater than 85%) | 5 (Level 5: the growth inhibition rate is greater than 85%) | 5 (Level 5: the growth inhibition rate is greater than 85%) | 5 (Level 5: the growth inhibition rate is greater than 85%) |
| CC(C)SC(=O)C(C)Oc1nc(F)c(Cl)c(N)c1Cl (stereo not drawn) [Compound 68] | 5 (Level 5: the growth inhibition rate is greater than 85%) | 5 (Level 5: the growth inhibition rate is greater than 85%) | 5 (Level 5: the growth inhibition rate is greater than 85%) | 5 (Level 5: the growth inhibition rate is greater than 85%) | 5 (Level 5: the growth inhibition rate is greater than 85%) | 5 (Level 5: the growth inhibition rate is greater than 85%) |
| CCC(C)SC(=O)C(C)Oc1nc(F)c(Cl)c(N)c1Cl (stereo not drawn) [Compound 69] | 5 (Level 5: the growth inhibition rate is greater than 85%) | 5 (Level 5: the growth inhibition rate is greater than 85%) | 5 (Level 5: the growth inhibition rate is greater than 85%) | 5 (Level 5: the growth inhibition rate is greater than 85%) | 5 (Level 5: the growth inhibition rate is greater than 85%) | 5 (Level 5: the growth inhibition rate is greater than 85%) |
| CCCCSC(=O)C(C)Oc1nc(F)c(Cl)c(N)c1Cl (stereo not drawn) [Compound 70] | 5 (Level 5: the growth inhibition rate is greater than 85%) | 5 (Level 5: the growth inhibition rate is greater than 85%) | 5 (Level 5: the growth inhibition rate is greater than 85%) | 5 (Level 5: the growth inhibition rate is greater than 85%) | 5 (Level 5: the growth inhibition rate is greater than 85%) | 5 (Level 5: the growth inhibition rate is greater than 85%) |
| CCCCCSC(=O)C(C)Oc1nc(F)c(Cl)c(N)c1Cl (stereo not drawn) [Compound 71] | 5 (Level 5: the growth inhibition rate is greater than 85%) | 5 (Level 5: the growth inhibition rate is greater than 85%) | 5 (Level 5: the growth inhibition rate is greater than 85%) | 5 (Level 5: the growth inhibition rate is greater than 85%) | 5 (Level 5: the growth inhibition rate is greater than 85%) | 5 (Level 5: the growth inhibition rate is greater than 85%) |
| CCCCCCSC(=O)C(C)Oc1nc(F)c(Cl)c(N)c1Cl (stereo not drawn) [Compound 72] | 5 (Level 5: the growth inhibition rate is greater than 85%) | 5 (Level 5: the growth inhibition rate is greater than 85%) | 5 (Level 5: the growth inhibition rate is greater than 85%) | 5 (Level 5: the growth inhibition rate is greater than 85%) | 5 (Level 5: the growth inhibition rate is greater than 85%) | 5 (Level 5: the growth inhibition rate is greater than 85%) |
| CCCCCCCCSC(=O)C(C)Oc1nc(F)c(Cl)c(N)c1Cl (stereo not drawn) [Compound 73] | 5 (Level 5: the growth inhibition rate is greater than 85%) | 5 (Level 5: the growth inhibition rate is greater than 85%) | 5 (Level 5: the growth inhibition rate is greater than 85%) | 5 (Level 5: the growth inhibition rate is greater than 85%) | 5 (Level 5: the growth inhibition rate is greater than 85%) | 5 (Level 5: the growth inhibition rate is greater than 85%) |
